From BindingDB's records for PubMed 2971798 (University of Pennsylvania, 1988)

Legend:
D(2) dopamine receptor = D(2) dopamine receptor (Canis lupus familiaris, UniProt Q9GJU1)
[1] = biological target: T1, 5-hydroxytryptamine receptor 2C (Canis lupus familiaris, UniProt Q60F97)
T1 sequence (Q60F97 whole entry): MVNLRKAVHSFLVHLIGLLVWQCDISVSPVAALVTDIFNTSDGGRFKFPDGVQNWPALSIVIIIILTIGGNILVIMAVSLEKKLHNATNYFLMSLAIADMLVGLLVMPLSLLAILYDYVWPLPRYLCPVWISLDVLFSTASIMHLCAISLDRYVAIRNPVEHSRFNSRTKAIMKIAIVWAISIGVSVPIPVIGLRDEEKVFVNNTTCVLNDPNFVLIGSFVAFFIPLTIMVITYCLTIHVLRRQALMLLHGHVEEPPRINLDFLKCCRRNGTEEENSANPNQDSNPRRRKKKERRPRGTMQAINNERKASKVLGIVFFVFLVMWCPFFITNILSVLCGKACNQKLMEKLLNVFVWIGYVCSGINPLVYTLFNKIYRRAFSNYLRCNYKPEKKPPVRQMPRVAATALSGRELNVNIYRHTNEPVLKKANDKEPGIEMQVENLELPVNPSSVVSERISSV

D(2) dopamine receptor, sequence (Q9GJU1 whole entry): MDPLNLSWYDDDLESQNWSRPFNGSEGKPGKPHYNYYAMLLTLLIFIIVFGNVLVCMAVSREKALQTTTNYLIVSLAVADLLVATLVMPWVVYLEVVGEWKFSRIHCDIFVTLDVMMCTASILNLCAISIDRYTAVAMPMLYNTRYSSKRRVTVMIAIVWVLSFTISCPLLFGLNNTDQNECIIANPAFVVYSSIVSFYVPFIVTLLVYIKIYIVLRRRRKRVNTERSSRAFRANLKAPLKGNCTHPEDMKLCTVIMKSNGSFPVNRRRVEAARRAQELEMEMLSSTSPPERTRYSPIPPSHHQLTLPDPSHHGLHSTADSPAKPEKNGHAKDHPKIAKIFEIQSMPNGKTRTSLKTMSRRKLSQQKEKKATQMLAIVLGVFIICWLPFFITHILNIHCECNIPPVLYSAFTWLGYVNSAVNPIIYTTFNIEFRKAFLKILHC

SMILES	Ki (D(2) dopamine receptor) [nM]	Ki [1] [nM]
NCCc1ccc(O)c(O)c1	> 10000	–
O=C(c1ccc(F)cc1)C1CCN(CCn2c(=O)[nH]c3ccccc3c2=O)CC1 [3-(2-{4-[(4-fluorophenyl)carbonyl]piperidin-1-yl}ethyl)-1,2,3,4-tetrahydroquinazoline-2,4-dione]	166	13
OCCN1CCN(CC/C=C2/c3ccccc3Sc3ccc(C(F)(F)F)cc32)CC1 [(cis) 2-{4-[3-(2-Trifluoromethyl-thioxanthen-9-ylidene)-propyl]-piperazin-1-yl}-ethanol(Flupentixol)]	30	–
CN1CCN2c3ccccc3Cc3ccccc3[C@H]2C1 [MIANSERIN (+)]	161	2.8
NCCc1c[nH]c2ccc(O)cc12 [[3H]-5-HT]	> 10000	–
